{"source": "patent US8642608B2", "about": "“Quinazoline derivatives as VEGF inhibitors” (AstraZeneca AB, priority 1999, dated 2014)", "key": {"[1]": {"tested_on": "VEGF-stimulated human umbilical vein endothelial cells (HUVEC)", "test": "In vitro HUVEC proliferation assay (b), VEGF-stimulated", "assay_type": "cell-based", "details": "96 h, test (b), VEGF 3 ng/ml, 4 days, tritiated-thymidine incorporation", "experimental": "(§1) (b) In Vitro HUVEC Proliferation Assay\n(§2) HUVEC cells were isolated in MCDB 131 (Gibco BRL)+7.5% v/v foetal calf serum (FCS) and were plated out (at passage 2 to 8), in MCDB 131+2% v/v FCS+3 μg/ml heparin+1 μg/ml hydrocortisone, at a concentration of 1000 cells/well in 96 well plates. After a minimum of 4 hours they were dosed with the appropriate growth factor (i.e. VEGF 3 ng/ml, EGF 3 ng/ml or b-FGF 0.3 ng/ml) and compound. The cultures were then incubated for 4 days at 37° C. with 7.5% carbon dioxide. On day 4 the cultures were pulsed with 1 μCi/well of tritiated-thymidine (Amersham product TRA 61) and incubated for 4 hours. The cells were harvested using a 96-well plate harvester (Tomtek) and then assayed for incorporation of tritium with a Beta plate counter. Incorporation of radioactivity into cells, expressed as cpm, was used to measure inhibition of growth factor-stimulated cell proliferation by compounds."}, "[2]": {"tested_on": "femoral epiphyseal growth plates of the distal femur and proximal tibia", "test": "14 day toxicity test in rat (d)", "assay_type": "in vivo, Alderley Park rats (Wistar derived)", "details": "100 mg/kg/day, oral gavage, 14 days, female rats; p<0.001 (one-tailed Students' t-test)", "from_the_text": "The toxicological profile of compounds of the present invention may be assessed, for example using a rat 14 day study as described hereinafter.\n(d) 14 Day Toxicity Test in Rat\nThis test measures the activity of compounds in increasing the zone of hypertrophy in the femoral epiphyseal growth plates of the distal femur and proximal tibia, and allows assessment of histopathological changes in other tissues.\nA. Preclinical Safety Evaluation of rhuMAbVEGF, an antiangiogenic humanised monoclonal antibody, Tox. Path., 27: 78-86, 1999).\nCompounds were initially formulated by suspension in a 1% (v/v) solution of polyoxyethylene (20) sorbitan mono-oleate in deionised water, by ball-milling at 4° C. overnight (at least 15 hours). Compounds were re-suspended by agitation immediately prior to dosing. […] The femoral epiphyseal growth plate areas of the distal femur and proximal tibia were measured in sections of femur and tibia using morphometric image analysis. The increase in the zone of hypertrophy was determined by comparison of the mean epiphyseal growth plate area of the control group versus the treatment group, and statistical significance determined using a one-tailed Students' t-test. […]"}, "[3]": {"tested_on": "human umbilical vein endothelial cells (HUVEC), basal", "test": "In vitro HUVEC proliferation assay (b), basal", "assay_type": "cell-based", "details": "test (b)"}, "CaLu-6 tumour xenografts": {"tested_on": "CaLu-6 tumour xenografts", "test": "In vivo solid tumour disease model (c)", "set-up": "species or system female athymic Swiss nu/nu mice", "details": "50 mg/kg, orally once daily, CaLu-6 xenografts in mice; p<0.001 (Mann-Whitney Rank Sum Test)", "experimental": "(c) In Vivo Solid Tumour Disease Model\nThis test measures the capacity of compounds to inhibit solid tumour growth.\nCaLu-6 tumour xenografts were established in the flank of female athymic Swiss nu/nu mice, by subcutaneous injection of 1×10^6 CaLu-6 cells/mouse in 100 μl of a 50% (v/v) solution of Matrigel in serum free culture medium. […] Tumours were measured using vernier calipers and volumes were calculated as: (l×w)×√(1×w)×(π/6), where 1 is the longest diameter and w the diameter perpendicular to the longest diameter. Test compounds were administered orally once daily for a minimum of 21 days, and control animals received compound diluent. Tumours were measured twice weekly. The level of growth inhibition was calculated by comparison of the mean tumour volume of the control group versus the treatment group, and statistical significance determined using a Students' t-test and/or a Mann-Whitney Rank Sum Test. The inhibitory effect of compound treatment was considered significant when p<0.05."}, "[4]": {"tested_on": "EGF-stimulated human umbilical vein endothelial cells (HUVEC)", "test": "In vitro HUVEC proliferation assay (b), EGF-stimulated", "assay_type": "cell-based", "details": "96 h, test (b), EGF 3 ng/ml, 4 days, tritiated-thymidine incorporation", "experimental": "as §1, §2"}}, "data": [{"compound": "COc1cc2c(Nc3ccc(Br)cc3F)ncnc2cc1OCC1CCN(C)CC1", "note": "[Example 2, 4-(4-bromo-2-fluoroanilino)-6-methoxy-7-(1-methylpiperidin-4-ylmethoxy)quinazoline]", "values": [{"measurement": "IC50", "setting": "[1]", "result": 60, "unit": "nM"}, {"measurement": "increase in epiphyseal growth plate hypertrophy", "setting": "[2]", "result": 75, "unit": "%"}, {"measurement": "IC50", "setting": "[3]", "result": "> 3000", "unit": "nM"}, {"measurement": "inhibition of tumour growth", "setting": "CaLu-6 tumour xenografts", "result": 78, "unit": "%"}, {"measurement": "IC50", "setting": "[4]", "result": 170, "unit": "nM"}]}]}
